Results published in patent publication EP2818471A1, “Nitrogen bicyclic compounds as inhibitors for Scyl1 and Grk5” (Max-Planck-Gesellschaft zur Förderung der Wissenschaften …, priority 2013, dated 2014).

Tested on: beta-TC6 cells
Assay: Insulin HTRF assay, relative activity Ar normalized to sunitinib
Format: cell-based
Conditions: Mus musculus, normalized to positive control sunitinib (5 µM = 100%), Table 10
From the text: For further screening of compounds derived from compounds described above for their ability to regulate insulin release an insulin HTRF® (Homogeneous Time-Resolved Fluorescence; Cisbio International, France) was used. This assay is based on two antibodies against insulin binding to different epitopes of insulin. One of these antibodies is coupled to Europium (Ab-Eu-Cryptate) and the other one to the fluorophore XL665 (Ab-XL665). Is insulin secreted into the supernatant of cell culture both antibodies can bind to insulin and come therefore into close proximity which allows upon excitation that energy transfer between (FRET) the long-life fluorescent donor Europium (cryptate) and the acceptors XL665. FRET increases proportionally with insulin concentration.
The automated assay protocol is as follows: • On day 1 15k beta-TC6 cells per well were seeded for 24 or 48 h in 50 µl complete medium. On day 2 or respective on day 3 the medium is removed and cells are washed with 60 µl 1xPBS and 20 µl induction buffer is added using BioTek washer. Subsequently, 10 µl Sunitininb (5 µM f.c.) or the test compound in induction buffer; 0.5% f.c. DMSO (CyBi-well) is transferred to the cells. The cells are then incubated at 37°C for 2, 3, 4h.
The HTRF assay is carried out using Greiner 384-well 784075 assay plates. First 10 µl supernatant is transferred from the cell plates in HTRF plates (CyBi-well). 10 µl of 0, 1, 2, and 4 ng/ml Insulin standard controls in assay medium is used as a control. To each well 10 µl of combined 1:25 Ab-XL665 (Acc) and 1:20 Ab-Eu-Cryptate (WellMate) are added and incubated for 120 min at RT in the dark. Finally HTRF is measured on ViewLux ultra high throughput microplate imager (PerkinElmer).
The evaluation software DataFactoty derives relative activities Ar according to the following equation: Ar = (V-R(0%control))/(R(100%control) -R(0%control)) × 100 [formula] […]
The activity of the compounds was classified according to their Ar (relative activity) into the following ranges: Ar ≥ 100% + + + +; 50% ≤ Ar < 100% + + +; 20% ≤ Ar < 50% + +; 10% < Ar < 20% + [formula] Table 10. Ar (relative activity) values of inventive compounds

Structure (SMILES) | Emax [%]
N#Cc1ccc(-c2cnc3cnc(-c4ccc(CO)cc4)cn23)cc1 [compound 338, 4-[6-[4-(hydroxymethyl)phenyl]imidazo[1,2-a]pyrazin-3-yl]benzonitrile] | 20 to 50
c1cnc2cc(-c3nnc4ccc(-c5ccoc5)cn34)ccc2n1 [compound 245, 6-[6-(3-furyl)-[1,2,4]triazolo[4,3-a]pyridin-3-yl]quinoxaline] | 50 to 100
Cn1cc(-c2cnc3cnc(-c4cc5ccccc5s4)cn23)cn1 [compound 439, 6-(benzothiophen-2-yl)-3-(1-methylpyrazol-4-yl)imidazo[1,2-a]pyrazine] | 20 to 50
c1ccc(-c2cn3c(-c4ccc5c(c4)OCO5)cnc3cn2)cc1 [compound 300, 3-(1,3-benzodioxol-5-yl)-6-phenyl-imidazo[1,2-a]pyrazine] | 50 to 100
CN(C)c1cccc(-c2ccc3ncc(-c4cccs4)n3n2)c1 [compound 155, N,N-dimethyl-3-[3-(2-thienyl)imidazo[1,2-b]pyridazin-6-yl]aniline] | 20 to 50
Fc1cccc(-c2cn3c(-c4ccc5c(c4)OCO5)cnc3cn2)c1 [compound 304, 3-(1,3-benzodioxol-5-yl)-6-(3-fluorophenyl)imidazo[1,2-a]pyrazine] | 50 to 100
Fc1ccc(-c2cn3c(-c4ccsc4)cnc3cn2)cc1Cl [compound 320, 6-(3-chloro-4-fluoro-phenyl)-3-(3-thienyl)imidazo[1,2-a]pyrazine] | 20 to 50
O=C(NC1CC1)c1ccc(-c2cn3c(-c4ccc(O)cc4)cnc3cn2)cc1 [compound 326, N-cyclopropyl-4-[3-(4-hydroxyphenyl)imidazo[1,2-a]pyrazin-6-yl]benzamide] | 20 to 50
OCc1ccc(-c2cn3c(-c4cccc(F)c4)cnc3cn2)cc1 [compound 389, [4-[3-(3-fluorophenyl)imidazo[1,2-a]pyrazin-6-yl]phenyl]methanol] | 20 to 50
CN1CCN(C(=O)c2cccc(-c3cnc4cnc(-c5ccc(CNc6ccccc6)cc5)cn34)c2)CC1 [compound 359, [3-[6-[4-(anilinomethyl)phenyl]imidazo[1,2-a]pyrazin-3-yl]phenyl]-(4-methylpiperazin-1-yl)methanone] | 10 to 20
CNc1ccc2ncc(-c3ccccc3O)n2n1 [compound 60, 2-[6-(methylamino)imidazo[1,2-b]pyridazin-3-yl]phenol] | 20 to 50
COc1cc(OC)cc(-c2cn3c(-c4cccc(N(C)C)c4)cnc3cn2)c1 [compound 346, 3-[6-(3,5-dimethoxyphenyl)imidazo[1,2-a]pyrazin-3-yl]-N,N-dimethyl-aniline] | 20 to 50
COCCNc1ccc2ncc(-c3ccc(C(=O)Nc4ccc(OC)cc4)cc3)n2n1 [compound 7, 4-[6-(2-methoxyethylamino)imidazo[1,2-b]pyridazin-3-yl]-N-(4-methoxyphenyl)benzamide] | 20 to 50
Cc1ccccc1-c1cnc2cnc(-c3cccc(F)c3)cn12 [compound 404, 6-(3-fluorophenyl)-3-(o-tolyl)imidazo[1,2-a]pyrazine] | 10 to 20
CC(C)(C)c1ccc(-c2cnc3cnc(-c4ccc(N)nc4)cn23)cc1 [compound 408, 5-[3-(4-tert-butylphenyl)imidazo[1,2-a]pyrazin-6-yl]pyridin-2-amine] | 10 to 20
c1csc(-c2cn3c(-c4ccncc4)cnc3cn2)c1 [compound 314, 3-(4-pyridyl)-6-(2-thienyl)imidazo[1,2-a]pyrazine] | 20 to 50
Oc1ccc(-c2cn3c(-c4cccs4)cnc3cn2)cc1 [compound 417, 4-[3-(2-thienyl)imidazo[1,2-a]pyrazin-6-yl]phenol] | 50 to 100

Structure (SMILES) | Emax [%]
COc1cccc(CC(=O)Nc2cnc3cnc(-c4cccs4)cn23)c1 [compound 260, 2-(3-methoxyphenyl)-N-[6-(2-thienyl)imidazo[1,2-a]pyrazin-3-yl]acetamide] | 20 to 50
COc1ccc(-c2ccc3nnc(-c4ccncc4)n3c2)cc1OC [compound 177, 6-(3,4-dimethoxyphenyl)-3-(4-pyridyl)-[1,2,4]triazolo[4,3-a]pyridine] | 20 to 50
COc1ccc(-c2cnc3cnc(-c4ccc(CO)cc4)cn23)cc1 [compound 361, [4-[3-(4-methoxyphenyl)imidazo[1,2-a]pyrazin-6-yl]phenyl]methanol] | 50 to 100
FC(F)(F)c1cccc(-c2cnc3ccc(-c4ccncc4)nn23)c1 [compound 134, 6-(4-pyridyl)-3-[3-(trifluoromethyl)phenyl]imidazo[1,2-b]pyridazine] | 20 to 50
COc1ccc(-c2cnc3cnc(-c4ccc(N)nc4)cn23)cc1 [compound 363, 5-[3-(4-methoxyphenyl)imidazo[1,2-a]pyrazin-6-yl]pyridin-2-amine] | 20 to 50
c1cncc(-c2cnc3ccc(-c4ccoc4)nn23)c1 [compound 107, 6-(3-furyl)-3-(3-pyridyl)imidazo[1,2-b]pyridazine] | 20 to 50
Nc1cccc(-c2ccc3ncc(-c4cccc(Cl)c4)n3n2)c1 [compound 123, 3-[3-(3-chlorophenyl)imidazo[1,2-b]pyridazin-6-yl]an iline] | 20 to 50
CN(C)c1cccc(-c2cn3c(NC(=O)c4ccccc4)cnc3cn2)c1 [compound 268, N-[6-[3-(dimethylamino)phenyl]imidazo[1,2-a]pyrazin-3-yl]benzamide] | 50 to 100
O=C(NCCO)c1ccc(-c2cn3c(-c4cccs4)cnc3cn2)cc1 [compound 423, N-(2-hydroxyethyl)-4-[3-(2-thienyl)imidazo[1,2-a]pyrazin-6-yl]benzamide] | 10 to 20
CN(C)CCNC(=O)c1cccc(-c2ccc3nnc(-c4ccc5nccnc5c4)n3c2)c1 [compound 242, N-(2-dimethylaminoethyl)-3-(3-quinoxalin-6-yl-[1,2,4]triazolo[4,3-a]pyridin-6-yl)benzamide] | ≥ 100
CN(C)c1ccc(-c2cnc3cnc(-c4ccccc4N(C)C)cn23)cc1 [compound 283, 2-[3-(4-dimethylaminophenyl)imidazo[1,2-a]pyrazin-6-yl]-N,N-dimethyl-aniline] | 20 to 50
OCc1ccc(-c2cn3c(-c4cccs4)cnc3cn2)cc1 [compound 422, [4-[3-(2-thienyl)imidazo[1,2-a]pyrazin-6-yl]phenyl]methanol] | 20 to 50
Oc1cccc(-c2cnc3ccc(-c4cccc5ncccc45)nn23)c1 [compound 128, 3-[6-(5-quinolyl)imidazo[1,2-b]pyridazin-3-yl]phenol] | 10 to 20
c1csc(-c2cnc3cnc(-c4cc5ccccc5s4)cn23)c1 [compound 416, 6-(benzothiophen-2-yl)-3-(2-thienyl)imidazo[1,2-a]pyrazine] | 50 to 100
OCC#Cc1ccc2nnc(-c3ccc4c(c3)OCO4)n2c1 [compound 173, 3-[3-(1,3-benzodioxol-5-yl)-[1,2,4]triazolo[4,3-a]pyridin-6-yl]prop-2-yn-1-ol] | 20 to 50
COc1ccc(-c2nnc3ccc(-c4cccc(F)c4)cn23)cc1OC [compound 187, 3-(3,4-dimethoxyphenyl)-6-(3-fluorophenyl)-[1,2,4]triazolo[4,3-a]pyridine] | ≥ 100
CN(C)C(=O)c1ccc(-c2cnc3cnc(-c4ccc5c(ccn5C)c4)cn23)cc1 [compound 433, N,N-dimethyl-4-[6-(1-methylindol-5-yl)imidazo[1,2-a]pyrazin-3-yl]benzamide] | 20 to 50
